Data set [1] concerns U87-mIDH cells. The data set is described as follows: cellular uptake in U87-mIDH cells. It counts as cell-based, human. On the procedure:
(§1) Consistent with this assumption, uptake of [^18F]4 and, to a lesser extent, the ^18F-fluoroethoxylated analog [^18F]5 by both cell lines was considerably higher than that of (S)-[^18F]2.
(§2) Human glioblastoma cells with a c.395G>A knock-in mutation encoding mIDH1R132H (HTB-14IG™) and the corresponding wildtype cells (HTB-14™) were purchased from the American Type Culture Collection (ATCC). The cells were grown under standard culture conditions (5% CO2 and 95% air at 37 °C) in Eagle’s Minimum Essential Medium (MEM) supplemented with 10% fetal bovine serum (FBS) and antibiotics (penicillin–streptomycin mixed solution, Gibco, Thermo Fisher Scientific, Oberhausen, Germany).
(§3) For the cellular uptake studies, 1.5 × 10^5 cells were seeded into gelatin-coated 12-well transwell plates and incubated in 1 mL MEM (without FBS and antibiotics) containing 18.5 kBq (0.5 µCi) of the corresponding radiotracer. After incubation at 21 °C for 1 h, the supernatant was collected, the cells were lysed with 40 mM NaOH and the radioactivity of both fractions was measured with a gamma counter. The total protein concentration of the cell lysate was measured by a bicinchoninic acid (BCA) assay. The radiotracer uptake was calculated as the ratio of radioactivity in the cell fraction and the supernatant and normalized by protein content (% uptake/100 µg protein). Statistical analysis of the results was performed with Originlab Pro 2023b using two-tailed t-tests with a significance level of 0.05 to identify significant differences between groups.

Data set [2] deals with U87-WT cells. Kind of data set: cellular uptake in U87-WT cells. It counts as cell-based, human. The settings on record: incubation 1 h. On the procedure: as §1, §2, §3
The nature of data set [3]: PET biodistribution in healthy mice. It counts as in vivo, C57BL/6 mice. As to the method: The in vivo stability, whole-body biodistribution and excretory pathways of [^18F]4 were investigated by small animal PET imaging in healthy C57BL/6 mice (Figure 5). […] In contrast, renal excretion was negligible, with very low radioactivity accumulation in the urinary bladder. Background uptake into muscles and other tissues was also low, with maximum SUVbw values of 52 ± 6 after 16 min followed by a decline to 18 ± 2 after 120 min. […] Nevertheless, while limited BBB penetrance might be an issue in patients with an intact BBB, brain tumors like gliomas are often associated with partial BBB disruption, which could facilitate tumor delivery of the probe. […] With this in mind and based on the reasonable in vivo stability and low background uptake, the tumor accumulation and mIDH-selectivity of [^18F]4 were further investigated in a subcutaneous tumor model.
All experiments were carried out in accordance with the EU directive 2010/63/EU for animal experiments and the German Animal Welfare Act (TierSchG, 2006) and were approved by the regional authorities (LANUV NRW; 81-02.04.2022.A442). Six male CB17-SCID mice and four male C57BL/6 mice (Janvier Labs, Le Genest-Saint-Isle, France) were housed in groups in individually ventilated cages (Allentown LLC, Allentown, NJ, USA) in a temperature- and humidity-controlled room (20 ± 2 °C, 50–60% humidity) on a 12:12 h light–dark cycle. Throughout the experiments, the animals had ad libitum access to water and food.
The mice were anesthetized with isoflurane (5% for induction, 2% for maintenance) in O2/air (3:7), and a catheter for tracer injection was inserted into the lateral tail vein. They were placed on an animal holder (Medres, Cologne, Germany) and fixed with a tooth bar in a respiratory mask. Body temperature was maintained at 37 °C by warming the animal bed. Eyes were protected from drying with Bepanthen eye and nose ointment (Bayer, Leverkusen, Germany). Respiratory rate was monitored and maintained at around 40–60 breaths per minute by adjusting the isoflurane concentration. A PET scan in list mode was conducted using a Focus 220 micro PET scanner (CTI-Siemens, Erlangen, Germany) with a resolution at the center of the field of view of 1.4 mm. Data acquisition started with intravenous tracer injection and ended after 120 min. This was followed by a 10 min transmission scan using a ^57Co point source for attenuation correction. After the scan was completed, the catheter was removed and the animals were allowed to wake up in their home cage. Data were histogrammed in three ways: (1) 4 × 30 min frames for visual display, (2) 28 frames (2 × 1 min, 2 × 2 min, 6 × 4 min, 18 × 5 min) for determination of time–activity curves, (3) 53 frames (12 × 10 s, 6 × 30 s, 15 × 1 min, 20 × 5 min) for kinetic modelling. Full 3D rebinning was followed by an iterative OSEM3D/MAP reconstruction algorithm with attenuation and decay correction. The resulting voxel sizes were 0.47 mm × 0.47 mm × 0.80 mm. All further analysis was performed with the software VINCI 5.21 (Max Planck Institute for Metabolism Research, Cologne, Germany). Standardized uptake values based on body weight (SUVbw) were determined according to the following equation: SUVbw = radioactivity [Bq/g] × body weight [g] × 100/injected dose [Bq]. Statistical analysis of the results was performed with a 2-way analysis of variance (ANOVA) followed by Sidak’s multiple comparison test to identify significant differences between the two tumor types.

Data set [4] in a line: lipophilicity by shake-flask method (n-octanol/water or PBS). It counts as physicochemical. The settings on record: triplicate. On the procedure: As a measure for the lipophilicity of the four radiolabeled probes, their partition coefficients (logP) and distribution coefficients at pH 7.4 (logD7.4) were determined by the shake-flask method. Table 1 summarizes the results of these experiments and compares them with the predicted logD7.4 values calculated using the ADMETlab platform.
A solution of the corresponding radiotracer in DMSO (1 µL) was added to a mixture of n-octanol and PBS (pH = 7.4) or water (750 µL of each) in a 2 mL Eppendorf vial and the vial was vortexed for 2 min and centrifuged for another 2 min to separate the two phases. A total of 300 µL of the upper n-octanol phase was then carefully removed from the top, while 300 µL of the aqueous phase was removed by piercing the bottom of the vial with a syringe and cannula to avoid contact with the organic phase. Both fractions were transferred into fresh vials and counted in a gamma counter to determine the ratio between the activity in the organic and the aqueous phase. All measurements were performed in triplicate and the results are expressed as mean ± standard deviation of the logarithm of the partition coefficient between n-octanol and water (logP) or the logarithm of the distribution coefficient between n-octanol and PBS (logD7.4), respectively.

The term logP denotes a log measure of how a compound divides between an organic and an aqueous phase. Take `COc1cc(NCc2cc3cc([18F])ccc3[nH]c2=O)ccc1C#N` [[^18F]4]: the “fold higher cellular uptake than (S)-[^18F]2” value in data set [1] (U87-mIDH and U87-WT cells) is reported as 5−8 fold. In data set [1] (U87-mIDH cells, incubation 1 h), this compound returned a cellular uptake of 6.0 ± 2.0 % per 100 µg protein. In data set [2], this compound yielded a cellular uptake of 4.7 ± 1.4 % per 100 µg protein. In addition, in data set [3] (after 3 min, i.v., n = 4), the “max. SUVbw liver” value is 304 ± 54. Moreover, the “maximum SUVbw muscles and other tissues (background)” value in data set [3] (after 16 min) is 52 ± 6. Further, in data set [3] (after 120 min), the SUVbw bone is on record as 67 ± 8; the “SUVbw muscles and other tissues (background)” value turned out to be 18 ± 2. Besides, the “max. SUVbw intestine” value in data set [3] (after 120 min, i.v., n = 4) was determined as 5344 ± 1693. In data set [3] (mouse, in vivo), the excretory pathway result is “almost exclusive hepatobiliary excretion” and the renal excretion entry was “negligible”. The “brain uptake of radioactivity” value in data set [3] (throughout all measurements) was “very low”. In addition, the logD in data set [4] (n-octanol/PBS pH 7.4, shake-flask, read-out: logD7.4 Exp. Determined) amounted to 2.67 ± 0.04. Besides, in data set [4] (n-octanol/water, shake-flask, read-out: logP), the logP amounted to 2.5 ± 0.03.

The record behind these values is paper PMC11356819 (Molecules, 2024).
